Data on 13 molecules can be found in PubChem BioAssay (NCI).

Structures are written as SMILES.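 Five concentrations, 48 hours, 96-well plates. GI50: concentration for 50% inhibition of growth. TGI marks complete inhibition of growth.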 Where only a bound is given, the exact number is not on record here.

Among the test systems are 786-0 renal; CCRF-CEM leukemia; EKVX NSCLC; HL-60(TB) leukemia; MALME-3M melanoma; SK-MEL-5 melanoma; SNB-75 CNS; SR leukemia; UACC-62 melanoma; NCI/ADR-RES ovarian.
What all share (test): NCI-60 cell line screen, 48 h

Consider `[Cl][Sn]([Cl])([c]1ccccc1)[c]1ccccc1`, for which the GI50 in the assay on 786-0 renal was 4.8 µM; with CCRF-CEM leukemia it was 1.74 µM; in the assay with EKVX NSCLC, 17.8 µM; in the assay with HL-60(TB) leukemia, 4.03 µM; in the assay with MALME-3M melanoma, 2.68 µM; with SK-MEL-5 melanoma it was 12.2 µM. In addition, the GI50 with SNB-75 CNS is 10.8 µM; in the assay on SR leukemia it was 3.93 µM; in the assay on UACC-62 melanoma it was 2.87 µM. Moreover, the TGI in the assay with 786-0 renal was determined as 16.7 µM; in the assay with CCRF-CEM leukemia, 5.76 µM; with EKVX NSCLC it was 32.1 µM; in the assay with HL-60(TB) leukemia, 31.1 µM; in the assay on MALME-3M melanoma, 8.01 µM; in the assay on SK-MEL-5 melanoma, 26.9 µM. The TGI with SNB-75 CNS was determined as 22.9 µM; with SR leukemia it was 25.7 µM; in the assay with UACC-62 melanoma it was 9.08 µM.
`CC(=O)N1c2ccccc2C2=CC3C4C(=O)N(c5ccccc5)C(=O)C4C21C1C(=O)N(c2ccccc2)C(=O)C31` (stereo unspecified): the TGI in the assay on 786-0 renal was more than 100 µM; with CCRF-CEM leukemia, more than 100 µM; in the assay with HL-60(TB) leukemia, 58.8 µM; in the assay on MALME-3M melanoma, more than 100 µM; with SNB-75 CNS it was more than 100 µM; with SR leukemia, more than 100 µM. In the assay with UACC-62 melanoma, this molecule had a TGI of more than 100 µM.
Turning to `CCN(CC)CCCn1cnc2ncccc2c1=O`, the TGI in the assay with 786-0 renal, in the assay on CCRF-CEM leukemia, in the assay with EKVX NSCLC, in the assay with MALME-3M melanoma, with SK-MEL-5 melanoma and in the assay on SNB-75 CNS was more than 100 µM throughout. The TGI in the assay with SR leukemia and in the assay with UACC-62 melanoma was more than 100 µM each time.
Turning to `CCCCCCCC(=O)NCC(O)CNC(=O)CCCCCCC`, the TGI in the assay with 786-0 renal, in the assay with CCRF-CEM leukemia, in the assay with EKVX NSCLC, in the assay on HL-60(TB) leukemia, with MALME-3M melanoma and in the assay with SK-MEL-5 melanoma was more than 100 µM in each case. Moreover, the TGI in the assay on SNB-75 CNS, in the assay on SR leukemia and in the assay on UACC-62 melanoma was more than 100 µM throughout.
Turning to `O=C(CCC(=O)Nc1cccc(Cl)c1)CC(=O)c1ccc(F)cc1`, the TGI in the assay on 786-0 renal, in the assay on HL-60(TB) leukemia, with MALME-3M melanoma, in the assay on SNB-75 CNS, with SR leukemia and with UACC-62 melanoma was more than 100 µM in each case.
On to `O=C(O)C1=CCCc2ccc3ccccc3c21`, for which the TGI with 786-0 renal, in the assay with EKVX NSCLC, in the assay with MALME-3M melanoma, in the assay with SNB-75 CNS and with UACC-62 melanoma was more than 100 µM throughout.
In the case of `CCC1C(=O)OCc2c1cc1n(c2=O)Cc2cc3ccccc3nc2-1` (stereo unspecified), the TGI with 786-0 renal is 27.3 µM; in the assay on EKVX NSCLC, more than 100 µM; with HL-60(TB) leukemia, more than 36.2 µM; in the assay with MALME-3M melanoma, more than 100 µM; with NCI/ADR-RES ovarian, more than 64.7 µM; in the assay with SK-MEL-5 melanoma, 32.1 µM. Also, the TGI in the assay with SNB-75 CNS was 25.9 µM; in the assay with UACC-62 melanoma, more than 37.6 µM.
Take `CCOc1ccccc1NC(=O)c1cc2ccccc2cc1O`: the GI50 in the assay on 786-0 renal was 3.34 µM; with CCRF-CEM leukemia, 2.58 µM; with EKVX NSCLC, 2.67 µM; in the assay with HL-60(TB) leukemia, 2.31 µM; in the assay on MALME-3M melanoma, 2.3 µM; in the assay with NCI/ADR-RES ovarian, 3.13 µM. In addition, the GI50 with SK-MEL-5 melanoma is 1.82 µM; with SNB-75 CNS, 2.89 µM; in the assay on UACC-62 melanoma, 2.18 µM. Besides, the TGI worked out at 9.13 µM with 786-0 renal; 32.9 µM in the assay on CCRF-CEM leukemia; 11.3 µM with EKVX NSCLC; 5.47 µM in the assay with HL-60(TB) leukemia; 10.2 µM with MALME-3M melanoma; 14.2 µM with NCI/ADR-RES ovarian. Besides, the figures for the TGI in the assay on SK-MEL-5 melanoma, in the assay with SNB-75 CNS and with UACC-62 melanoma were 3.7 µM, 15.8 µM and 9.55 µM, respectively.
As for `Cn1c2c(c3ccccc31)CCN(CCN1CCN(c3ccccc3)CC1)C2=O`, the TGI with 786-0 renal, in the assay on CCRF-CEM leukemia, in the assay on EKVX NSCLC, in the assay on HL-60(TB) leukemia, in the assay with SK-MEL-5 melanoma and in the assay on UACC-62 melanoma was more than 100 µM each time.
`CC(=O)CCc1ccc(OC2OC(COC(=O)c3cc(O)c(O)c(O)c3)C(O)C(O)C2OC(=O)/C=C/c2ccccc2)cc1` (stereo unspecified): the GI50 with 786-0 renal was 18.6 µM; in the assay with CCRF-CEM leukemia, 20.7 µM; with EKVX NSCLC, 40.3 µM; in the assay with MALME-3M melanoma, 26.8 µM; in the assay on NCI/ADR-RES ovarian it was more than 100 µM; with SK-MEL-5 melanoma it was 19.1 µM. Also, the GI50 with UACC-62 melanoma is 18.4 µM. The TGI was 48.2 µM in the assay with 786-0 renal; 52.2 µM in the assay on CCRF-CEM leukemia; 72 µM in the assay with EKVX NSCLC; 46.2 µM with MALME-3M melanoma; more than 100 µM in the assay with NCI/ADR-RES ovarian; 36.1 µM in the assay on SK-MEL-5 melanoma. The TGI in the assay on UACC-62 melanoma came out at 32.6 µM.
Consider `CC[O-].CC[O-].O=C([CH-]C(=O)c1cccnc1)c1ccccc1.O=C([CH-]C(=O)c1cccnc1)c1ccccc1.[Ti+4]`, for which the GI50 is 61.1 µM with 786-0 renal; more than 100 µM in the assay on EKVX NSCLC; 27.9 µM with HL-60(TB) leukemia; more than 100 µM in the assay with MALME-3M melanoma; more than 100 µM with SK-MEL-5 melanoma; 19.9 µM in the assay with SNB-75 CNS. Further, the GI50 in the assay on SR leukemia was 25.5 µM; in the assay on UACC-62 melanoma it was more than 100 µM. The TGI in the assay with 786-0 renal is more than 100 µM; with EKVX NSCLC, more than 100 µM; with HL-60(TB) leukemia, 85 µM; in the assay on MALME-3M melanoma, more than 100 µM; in the assay with SK-MEL-5 melanoma, more than 100 µM; in the assay with SNB-75 CNS, 69 µM. For the same molecule, the TGI with SR leukemia and in the assay on UACC-62 melanoma was more than 100 µM in each case.
In the case of `Cc1cc(Cl)cc2c(N=Nc3ccccc3[N+](=O)[O-])c(O)[nH]c12`, the TGI with 786-0 renal, with CCRF-CEM leukemia, with EKVX NSCLC, in the assay on HL-60(TB) leukemia, with SK-MEL-5 melanoma and in the assay on SNB-75 CNS was more than 100 µM each time. In addition, the TGI is 82.3 µM in the assay with SR leukemia and more than 100 µM in the assay with UACC-62 melanoma.
As for `COC(=O)C1CCC(Nc2ccc(C)cc2C)=N1` (stereo unspecified), the TGI in the assay on 786-0 renal, in the assay with CCRF-CEM leukemia, with EKVX NSCLC, in the assay on HL-60(TB) leukemia, in the assay on MALME-3M melanoma and with SK-MEL-5 melanoma was more than 100 µM throughout. Moreover, the TGI in the assay on SNB-75 CNS and in the assay with UACC-62 melanoma was more than 100 µM throughout.
